{"source": "BindingDB's records for doi:10.1021/acs.jmedchem.8b01224", "about": "(Helmholtz Zentrum M?nchen, 2018)", "key": {"[1]": {"target": "T1, Tyrosine-protein phosphatase non-receptor type 1 (Homo sapiens, UniProt P18031)", "T1 sequence (P18031 whole entry)": "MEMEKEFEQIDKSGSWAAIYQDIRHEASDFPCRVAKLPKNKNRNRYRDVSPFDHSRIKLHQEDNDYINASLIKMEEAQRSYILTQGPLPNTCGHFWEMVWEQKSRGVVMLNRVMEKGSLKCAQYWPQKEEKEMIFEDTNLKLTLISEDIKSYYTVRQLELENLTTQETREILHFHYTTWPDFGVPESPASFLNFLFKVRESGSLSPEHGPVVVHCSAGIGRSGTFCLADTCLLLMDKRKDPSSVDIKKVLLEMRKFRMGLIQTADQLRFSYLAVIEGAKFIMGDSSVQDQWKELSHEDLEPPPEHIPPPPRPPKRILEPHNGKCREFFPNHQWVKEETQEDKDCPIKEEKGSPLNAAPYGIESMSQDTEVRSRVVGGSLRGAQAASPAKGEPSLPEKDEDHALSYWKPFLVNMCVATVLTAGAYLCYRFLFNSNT", "assay": "(§1) Binding affinity to human N-terminal His6-tagged PTP1B catalytic domain (1 to 298 residues) expressed in Escherichia coli strain Rosetta2 (DE3) assessed as association rate constant using DiFMUP as substrate preincubated for 10 mins followed by substrate addition measured for 10 mins fluorescence assay"}, "[2]": {"target": "T1, Tyrosine-protein phosphatase non-receptor type 1", "assay": "as §1, with “dissociation” for “association”"}}, "data": [{"compound": "C=c1c(O)c(O)cc2c1=CC=C1[C@@]2(C)CC[C@@]2(C)[C@@H]3C[C@](C)(C(=O)O)CC[C@]3(C)CC[C@]12C", "values": [{"measurement": "kon", "setting": "[1]", "result": 59, "unit": "M⁻¹ s⁻¹"}, {"measurement": "koff", "setting": "[2]", "result": 0.000362, "unit": "s⁻¹"}]}]}
